Experimental data taken from paper PMC4242080, “NMR structure of the water soluble Aβ17–34 peptide” (Bioscience Reports, 2014).

Assay: Peptide solubility in aqueous buffers and water
Description: These peptides contained two glutamate or arginine residues at the N- and C-termini for increased solubility. The full amino acid sequence of the purchased Aβ was […] (Peptide 2.0 Inc. Company) and […] (Sigma-Aldrich). The peptide mass was verified using MALDI-TOF mass spectroscopy. To dissolve the peptides, phosphate and acetate aqueous buffers were prepared. None of the buffers contained hydrophobic solvents known to solubilize and stabilize α-helices (i.e. TFE or HFPI) or surfactants known to dissolve hydrophobic peptides (i.e. SDS). Henceforth, the Aβ17–34 peptide refers to the peptide flanked by two glutamates.
To solubilize Aβ, several approaches were taken. One approach was to add two arginines at the N- and C-termini. […] Another approach was to add two glutamic acids at the N- and C-termini.

CC[C@H](C)[C@H](NC(=O)[C@H](C)NC(=O)CNC(=O)[C@H](CCCCN)NC(=O)[C@H](CC(N)=O)NC(=O)[C@H](CO)NC(=O)CNC(=O)[C@@H](NC(=O)[C@H](CC(=O)O)NC(=O)[C@H](CCC(=O)O)NC(=O)[C@H](C)NC(=O)[C@H](Cc1ccccc1)NC(=O)[C@H](Cc1ccccc1)NC(=O)[C@@H](NC(=O)[C@H](CC(C)C)NC(=O)[C@H](CCCNC(=N)N)NC(=O)[C@@H](N)CCCNC(=N)N)C(C)C)C(C)C)C(=O)N[C@H](C(=O)NCC(=O)N[C@@H](CC(C)C)C(=O)N[C@@H](CCCNC(=N)N)C(=O)N[C@@H](CCCNC(=N)N)C(=O)O)[C@@H](C)CC
solubility in acetate and phosphate buffers at pH 1, 7 and 10 (acetate and phosphate aqueous buffers, pH 1, 7 and 10, no TFE, HFPI or SDS, compared with peptide without flanking residues): did not improve solubility

CC[C@H](C)[C@H](NC(=O)[C@H](C)NC(=O)CNC(=O)[C@H](CCCCN)NC(=O)[C@H](CC(N)=O)NC(=O)[C@H](CO)NC(=O)CNC(=O)[C@@H](NC(=O)[C@H](CC(=O)O)NC(=O)[C@H](CCC(=O)O)NC(=O)[C@H](C)NC(=O)[C@H](Cc1ccccc1)NC(=O)[C@H](Cc1ccccc1)NC(=O)[C@@H](NC(=O)[C@H](CC(C)C)NC(=O)[C@H](CCC(=O)O)NC(=O)[C@@H](N)CCC(=O)O)C(C)C)C(C)C)C(=O)N[C@H](C(=O)NCC(=O)N[C@@H](CC(C)C)C(=O)N[C@@H](CCC(=O)O)C(=O)N[C@@H](CCC(=O)O)C(=O)O)[C@@H](C)CC [Aβ17–34 peptide]
effect of terminal residue addition on solubility: improved solubility drastically
solubility in water: not in water
solubility in 50 mM acetate buffer at pH 7 (pH 7): soluble
solubility in 50 mM phosphate buffer at pH 7 (pH 7): soluble
